US20110039763A1, “TARGETED ANTIMICROBIAL MOIETIES” (C3 JIAN, INC., priority 2009, published 2011)
Entries after “also recorded” stand apart in the source; their conditions may differ.

Assays:
[1] = test system: microorganisms; test: Morphology, biofilm and growth disrupting peptides (Table 5); type: cell-based; design: key: A: Peptide aggregates; B: Less hyphal formation; Clumps; Diffuse clumps and small polyps; F: Diffuse growth; H: Thin; I: Growth inhibition; Microcolony formation; Rippled; Small polyps; Thick; W: Halo formation on top, microlonies on bottom
Source text: In certain embodiments peptides that induce alterations in phenotype or other biological activities can also be used as antimicrobial effector moieties.

[2] = test system: microorganisms; test: Targeting peptide binding to target microorganisms (Tables 3, 10, 12); conditions: microorganism(s) the targeting peptide binds; binding in aqueous buffers varied with peptide solubility, preferably 1x PBS
[3] = test system: microorganisms; test: Peptide activities: targeting/binding, antimicrobial, growth or phenotype altering (Tables 7, 8); type: cell-based; conditions: peptides having multiple activities

PF-681: peptide having multiple activities (TALTTVGVSGARLITYCVGVEDI; Peptide with targeting and/or antimicrobial activity)
Organism, effect ([1]; C. jeikeium): C. jeikeium (R)
Organism, effect ([1]; E. faecalis): E. faecalis (R)
Organism, effect ([1]; MRSA): MRSA (M)
Organism, effect ([1]; S. epidermidis): S. epidermidis (M)
Organism, effect ([1]; S. pneumoniae): S. pneumoniae (M)
Target(s) [2]: M. smegmatis
Activities [3]: G B

PF-686: peptide having multiple activities (LAVLMGYIGYRGWSGKRHINRQ; Peptide with targeting and/or antimicrobial activity)
Organism, effect ([1]; B. subtilis): B. subtilis (I)
Organism, effect ([1]; C. albicans): C. albicans (B)
Organism, effect ([1]; E. faecalis): E. faecalis (R)
Organism, effect ([1]; MRSA): MRSA (M)
Organism, effect ([1]; S. epidermidis): S. epidermidis (H)
Organism, effect ([1]; S. pneumoniae): S. pneumoniae (A)
Target(s) [2]: M. smegmatis
Activities [3]: G B

PF-737: peptide having multiple activities (KSSGSSASASSTAGGSSSK; Peptide with targeting and/or antimicrobial activity)
Organism, effect ([1]; S. pneumoniae): S. pneumoniae (D)
Target(s) [2]: S. epidermidis; also recorded: S. pneumoniae
Activities [3]: G B

PF-738: peptide having multiple activities (KSGATSAASGAKSGASS; Peptide with targeting and/or antimicrobial activity)
Organism, effect ([1]; MRSA): MRSA (M)
Target(s) [2]: S. epidermidis; also recorded: C. albicans; also recorded: C. jeikeium
Activities [3]: G B

PF-741: peptide having multiple activities (AKREDTVAAQIGANILNLIQ; Peptide with targeting and/or antimicrobial activity)
Organism, effect ([1]; E. coli): E. coli (C)
Organism, effect ([1]; M. luteus): M. luteus (C)
Organism, effect ([1]; MRSA): MRSA (C)
Organism, effect ([1]; P. mirabilis): P. mirabilis (C)
Organism, effect ([1]; S. epidermidis): S. epidermidis (C)
Organism, effect ([1]; S. mutans): S. mutans (D)
Organism, effect ([1]; S. pneumoniae): S. pneumoniae (D)
Target(s) [2]: S. epidermidis and M. luteus and P. mirabilis and P. aeruginosa and C. albicans and MRSA and S. pneumoniae and E. faecalis
Activities [3]: G B

PF-744: peptide having multiple activities (LGVGTFVGKVLIKNQQKQKSKKKAQ; Peptide with targeting and/or antimicrobial activity)
Organism, effect ([1]; S. pneumoniae): S. pneumoniae (H)
Target(s) [2]: S. epidermidis and M. luteus and E. coli and MRSA and S. pneumoniae and E. faecalis and C. jeikeium
Activities [3]: G B

PF-746: peptide having multiple activities (FLGNSQYFTRK; Peptide with targeting and/or antimicrobial activity)
Organism, effect ([1]; E. coli): E. coli (C)
Organism, effect ([1]; M. luteus): M. luteus (C)
Organism, effect ([1]; MRSA): MRSA (C)
Organism, effect ([1]; P. aeruginosa): P. aeruginosa (A)
Organism, effect ([1]; S. epidermidis): S. epidermidis (C)
Organism, effect ([1]; S. mutans): S. mutans (D)
Organism, effect ([1]; S. pneumoniae): S. pneumoniae (C)
Target(s) [2]: S. epidermidis; also recorded: M. luteus; also recorded: E. coli; also recorded: C. albicans; also recorded: S. pneumoniae; also recorded: E. faecalis; also recorded: C. jeikeium
Activities [3]: G B

PF-756: peptide having multiple activities (DALLRLA; Peptide with targeting and/or antimicrobial activity)
Organism, effect ([1]; S. pneumoniae): S. pneumoniae (A)
Target(s) [2]: S. epidermidis and M. luteus and C. albicans and MRSA and C. jeikeium
Activities [3]: G B

PF-757: peptide having multiple activities (PQAISSVQQNA; Peptide with targeting and/or antimicrobial activity)
Organism, effect ([1]; S. pneumoniae): S. pneumoniae (H)
Target(s) [2]: M. luteus and C. albicans and MRSA
Activities [3]: G B

PF-760: peptide having multiple activities (DHITLDDYEIHDGFNFELYYG; Peptide with targeting and/or antimicrobial activity)
Organism, effect ([1]; MRSA): MRSA (M)
Organism, effect ([1]; S. epidermidis): S. epidermidis (M)
Organism, effect ([1]; S. pneumoniae): S. pneumoniae (C)
Target(s) [2]: S. epidermidis; also recorded: M. luteus
Activities [3]: G B

PF-761: peptide having multiple activities (SKFELVNYASGCSCGADCKCASETECKCASKK; Peptide with targeting and/or antimicrobial activity)
Organism, effect ([1]; E. coli): E. coli (C)
Organism, effect ([1]; M. luteus): M. luteus (C)
Organism, effect ([1]; MRSA): MRSA (D)
Organism, effect ([1]; P. aeruginosa): P. aeruginosa (C)
Organism, effect ([1]; S. epidermidis): S. epidermidis (C)
Organism, effect ([1]; S. mutans): S. mutans (D)
Organism, effect ([1]; S. pneumoniae): S. pneumoniae (C)
Target(s) [2]: S. epidermidis and M. luteus and P. mirabilis and P. aeruginosa and C. albicans and MRSA and S. pneumoniae and E. faecalis
Activities [3]: G B

PF-762: peptide having multiple activities (PAPAPSAPAPAPEQPEQPA; Peptide with targeting and/or antimicrobial activity)
Organism, effect ([1]; S. pneumoniae): S. pneumoniae (H)
Target(s) [2]: M. luteus; also recorded: C. albicans
Activities [3]: G B

PF-764: peptide having multiple activities (GYFEPGKRD; Peptide with targeting and/or antimicrobial activity)
Organism, effect ([1]; MRSA): MRSA (D)
Organism, effect ([1]; S. pneumoniae): S. pneumoniae (H)
Target(s) [2]: S. epidermidis and M. luteus and C. albicans and MRSA and S. pneumoniae and E. faecalis and C. jeikeium
Activities [3]: G B

PF-776: peptide having multiple activities (VSILLYLSATIILPNVLRLLVARAIIVRV; Peptide with targeting and/or antimicrobial activity)
Organism, effect ([1]; E. coli): E. coli (C)
Organism, effect ([1]; M. luteus): M. luteus (C)
Organism, effect ([1]; MRSA): MRSA (D)
Organism, effect ([1]; S. epidermidis): S. epidermidis (D)
Organism, effect ([1]; S. mutans): S. mutans (D)
Organism, effect ([1]; S. pneumoniae): S. pneumoniae (C)
Target(s) [2]: S. epidermidis and M. luteus and P. mirabilis and C. albicans and MRSA and S. pneumoniae and E. faecalis
Activities [3]: G B

PF-C052: peptide having multiple activities (SRFRNGV; Peptide with targeting and/or antimicrobial activity)
Organism, effect ([1]; P. gingivalis): P. gingivalis (H)
Target(s) [2]: A. naeslundii; also recorded: F. nucleatum; also recorded: S. mutans
Activities [3]: G B

PF-C055: peptide having multiple activities (YNLSIYIYFLHTITIAGLITLPFII; Peptide with targeting and/or antimicrobial activity)
Organism, effect ([1]; F. nucleatum): F. nucleatum (T)
Organism, effect ([1]; S. mutans): S. mutans (I)
Target(s) [2]: A. naeslundii; also recorded: F. nucleatum; also recorded: P. gingivalis; also recorded: S. mutans
Activities [3]: G B

PF-C057: peptide having multiple activities (YFWWYWVQDCIPYKNNEVWLELSNNMK; Peptide with targeting and/or antimicrobial activity)
Organism, effect ([1]; S. mutans): S. mutans (I)
Target(s) [2]: A. naeslundii; also recorded: F. nucleatum; also recorded: P. gingivalis; also recorded: S. mutans
Activities [3]: G B

PF-C062: peptide having multiple activities (PLARATEVVATLFIICSLLLYLTR; Peptide with targeting and/or antimicrobial activity)
Organism, effect ([1]; F. nucleatum): F. nucleatum (T)
Organism, effect ([1]; S. mutans): S. mutans (I)
Target(s) [2]: A. naeslundii; also recorded: F. nucleatum; also recorded: P. gingivalis; also recorded: S. mutans; also recorded: T. denticola
Activities [3]: G B

PF-C064: peptide having multiple activities (DEEALEMGANLYAQFAIDFLNSKK; Peptide with targeting and/or antimicrobial activity)
Organism, effect ([1]; F. nucleatum): F. nucleatum (T)
Target(s) [2]: A. naeslundii; also recorded: F. nucleatum; also recorded: P. gingivalis; also recorded: S. mutans; also recorded: T. denticola
Activities [3]: G B

PF-C069: peptide having multiple activities (NALMLREMQLAKNIKVEVTDVLSNKKYC; Peptide with targeting and/or antimicrobial activity)
Organism, effect ([1]; F. nucleatum): F. nucleatum (T)
Target(s) [2]: A. naeslundii; also recorded: F. nucleatum; also recorded: P. gingivalis; also recorded: S. mutans; also recorded: T. denticola
Activities [3]: G B

PF-C071: peptide having multiple activities (QVIVKIL; Peptide with targeting and/or antimicrobial activity)
Organism, effect ([1]; F. nucleatum): F. nucleatum (T)
Target(s) [2]: A. naeslundii; also recorded: F. nucleatum; also recorded: S. mutans
Activities [3]: G B

PF-C075: peptide having multiple activities (KALVISVFAIVFSIIFVKFFYWRDKK; Peptide with targeting and/or antimicrobial activity)
Organism, effect ([1]; F. nucleatum): F. nucleatum (T)
Organism, effect ([1]; P. gingivalis): P. gingivalis (R)
Organism, effect ([1]; S. mutans): S. mutans (F)
Target(s) [2]: A. naeslundii; also recorded: F. nucleatum; also recorded: P. gingivalis; also recorded: S. mutans; also recorded: T. denticola
Activities [3]: G B

PF-C084: peptide having multiple activities (FFSVIFLFGLNYLICNSPLFNILR; Peptide with targeting and/or antimicrobial activity)
Organism, effect ([1]; F. nucleatum): F. nucleatum (T)
Organism, effect ([1]; P. gingivalis): P. gingivalis (R)
Organism, effect ([1]; S. mutans): S. mutans (F)
Target(s) [2]: A. naeslundii; also recorded: F. nucleatum; also recorded: P. gingivalis; also recorded: S. mutans
Activities [3]: G B
